Key:
gp160 processing = conditions: cell-permeable peptide; cited from earlier work
[1] = target: furin (recombinant soluble hfurin) (Homo sapiens, UniProt P09958); test: Inhibition assay of furin with fluorogenic substrate Pyr-RTKR-MCA; type: biochemical; conditions: up to 100 μM heparin (20 μM or 100 μM); fluorescence
furin (recombinant soluble hfurin), sequence (P09958 108-715 limits assumed): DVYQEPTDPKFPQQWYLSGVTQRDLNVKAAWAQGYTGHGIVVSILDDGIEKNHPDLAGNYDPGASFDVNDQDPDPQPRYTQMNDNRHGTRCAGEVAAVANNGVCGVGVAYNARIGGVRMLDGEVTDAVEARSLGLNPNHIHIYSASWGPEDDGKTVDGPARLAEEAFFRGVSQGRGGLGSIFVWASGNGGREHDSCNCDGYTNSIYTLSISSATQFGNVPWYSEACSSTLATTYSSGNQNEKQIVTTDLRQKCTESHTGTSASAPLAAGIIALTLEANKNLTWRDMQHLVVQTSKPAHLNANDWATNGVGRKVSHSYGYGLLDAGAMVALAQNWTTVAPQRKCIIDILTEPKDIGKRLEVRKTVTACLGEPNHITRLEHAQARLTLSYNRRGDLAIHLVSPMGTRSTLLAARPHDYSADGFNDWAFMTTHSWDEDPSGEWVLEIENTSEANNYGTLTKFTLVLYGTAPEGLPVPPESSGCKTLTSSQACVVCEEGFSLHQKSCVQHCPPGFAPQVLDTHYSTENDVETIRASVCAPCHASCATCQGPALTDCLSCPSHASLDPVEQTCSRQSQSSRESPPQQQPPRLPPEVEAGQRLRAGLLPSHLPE

Substance | Interference with gp160 processing (gp160 processing) | Influence on furin activity on Pyr-RTKR-MCA processing [1]
KIEPLGVAPTKAKRRVVQREKR [22mer] | interferes with gp160 processing | 
heparin |  | did not influence furin activity
